Assay results published in patent publication US20100267561A1, “HERBICIDAL PYRIDAZINONE DERIVATIVES” (priority 2007, published 2010).

Experiments:
Test in all cases: Test B pre-/postemergence plant response
Assay type in all cases: in vivo
[1] = system: blackgrass (Alopecurus myosuroides)
Procedure, shortened: (§1)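 Visual scoring from 0 (no effect) to 100 (complete control) against untreated controls was done 13 to 15 days after greenhouse treatment. Chemicals were formulated in a surfactant-containing non-phytotoxic solvent and applied to soil preemergence or to 1- to 4-leaf (2-18 cm) plants postemergence.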

[2] = system: lambsquarters (Chenopodium album)
Procedure, shortened: as §1

[3] = system: yellow nutsedge (Cyperus esculentus)
Procedure, shortened: as §1

[4] = system: large crabgrass (Digitaria sanguinalis)
Procedure, shortened: as §1

[5] = system: common ragweed (Ambrosia elation)
Procedure, shortened: as §1

[6] = system: catchweed bedstraw (Galium aparine); conditions: Preemergence
Procedure, shortened: as §1

[7] = system: woolly cupgrass (Eriochloa villosa)
Procedure, shortened: as §1

corn (Zea mays) = system: corn (Zea mays)
Procedure, shortened: as §1

[8] = system: green foxtail (Setaria viridis)
Procedure, shortened: as §1

wild oat (Avena fatua) = system: wild oat (Avena fatua)
Procedure, shortened: as §1

[9] = system: pigweed (Amaranthus retroflexus)
Procedure, shortened: as §1

[10] = system: velvetleaf (Abutilon theophrasti)
Procedure, shortened: as §1

[11] = system: cocklebur (Xanthium strumarium)
Procedure, shortened: as §1

[12] = Preemergence, 16 g ai/ha, scale 0 to 100 (0 no effect, 100 complete control)
[13] = Preemergence, 31 g ai/ha, 0 to 100 scale, 0 no effect, 100 complete control
[14] = Preemergence, 62 g ai/ha, scale 0 to 100
[15] = Preemergence, 8 g ai/ha, scale 0 to 100
[16] = Preemergence, 31 g ai/ha, scale 0 to 100 (0 no effect, 100 complete control)
[17] = Preemergence, 62 g ai/ha, 0 to 100 scale, 0 no effect, 100 complete control
[18] = 8 g ai/ha, postemergence, 0-100 scale
[19] = 16 g ai/ha, postemergence, 0-100 scale
[20] = Postemergence, 31 g ai/ha, scale 0 to 100
[21] = Postemergence, 62 g ai/ha, scale 0 to 100, 0 no effect, 100 complete control
[22] = Preemergence, 8 g ai/ha, scale 0 to 100 (0 no effect, 100 complete control)
[23] = Preemergence, 16 g ai/ha, scale 0 to 100

SMILES: Cc1cc(-c2ccc(Cl)cc2)nn1-c1c(OS(=O)(=O)C(C)C)cnn(C)c1=O [Compound 50]
- Plant response rating, Blackgrass [1, 12]: 0
- Plant response rating, Blackgrass [1, 13]: 60
- Plant response rating, Blackgrass [1, 14]: 95
- Blackgrass plant response rating [1, 15]: 0
- Plant response rating, Lambsquarters [2, 12]: 65
- Plant response rating, Lambsquarters [2, 13]: 100
- Plant response rating, Lambsquarters [2, 14]: 100
- Lambsquarters plant response rating [2, 15]: 0
- Plant response rating, Nutsedge, Yellow [3, 12]: 0
- Plant response rating, Nutsedge, Yellow [3, 16]: 0
- Plant response rating, Nutsedge, Yellow [3, 14]: 0
- Nutsedge, Yellow plant response rating [3, 15]: 0
- Plant response rating, Crabgrass, Large [4, 12]: 98
- Plant response rating, Crabgrass, Large [4, 13]: 100
- Plant response rating, Crabgrass, Large [4, 14]: 100
- Crabgrass, Large plant response rating [4, 15]: 60
- Plant response rating, Ragweed [5, 12]: 0
- Plant response rating, Ragweed [5, 16]: 0
- Plant response rating, Ragweed [5, 14]: 0
- Ragweed plant response rating [5, 15]: 0
- Plant response rating, Galium ([6]; 16 g ai/ha, scale 0 to 100 (0 no effect, 100 complete control)): 0
- Galium plant response rating ([6]; 8 g ai/ha, scale 0 to 100): 0
- Plant response rating, Cupgrass, Woolly [7, 12]: 75
- Plant response rating, Cupgrass, Woolly [7, 13]: 98
- Plant response rating, Cupgrass, Woolly [7, 14]: 100
- Cupgrass, Woolly plant response rating [7, 15]: 20
- Plant response rating, Corn (corn (Zea mays); [12]): 0
- Plant response rating, Corn (corn (Zea mays); [14]): 90
- Corn plant response rating (corn (Zea mays); [15]): 0
- Plant response rating, Foxtail, Green [8, 12]: 95
- Plant response rating, Foxtail, Green [8, 13]: 98
- Plant response rating, Foxtail, Green [8, 14]: 100
- Foxtail, Green plant response rating [8, 15]: 0
- Plant response rating, Oat, Wild (wild oat (Avena fatua); [12]): 40
- Plant response rating, Oat, Wild (wild oat (Avena fatua); [16]): 40
- Plant response rating, Oat, Wild (wild oat (Avena fatua); [14]): 70
- Oat, Wild plant response rating (wild oat (Avena fatua); [15]): 20
- Plant response rating, Pigweed [9, 12]: 0
- Plant response rating, Pigweed [9, 16]: 0
- Plant response rating, Pigweed [9, 14]: 0
- Pigweed plant response rating [9, 15]: 0
- Plant response rating, Velvetleaf [10, 12]: 0
- Plant response rating, Velvetleaf [10, 16]: 0
- Plant response rating, Velvetleaf [10, 17]: 0
- Velvetleaf plant response rating [10, 15]: 0
- Plant response rating, Cocklebur [11, 12]: 0
- Plant response rating, Cocklebur [11, 13]: 0
- Plant response rating, Cocklebur [11, 14]: 0
- Cocklebur plant response rating [11, 15]: 0

SMILES: COc1nn(C)c(=O)c(-n2nc(-c3ccc(Br)cc3)cc2C)c1O [Compound 82]
- Blackgrass plant response rating [1, 18]: 98
- Blackgrass plant response rating [1, 19]: 98
- Plant response rating, Blackgrass [1, 20]: 100
- Plant response rating, Blackgrass [1, 21]: 100
- Blackgrass plant response rating [1, 22]: 80
- Plant response rating, Blackgrass [1, 16]: 100
- Plant response rating, Blackgrass [1, 17]: 100
- Blackgrass plant response rating [1, 23]: 98
- Lambsquarters plant response rating [2, 18]: 0
- Lambsquarters plant response rating [2, 19]: 0
- Plant response rating, Lambsquarters [2, 20]: 0
- Plant response rating, Lambsquarters [2, 21]: 0
- Lambsquarters plant response rating [2, 22]: 0
- Plant response rating, Lambsquarters [2, 16]: 100
- Plant response rating, Lambsquarters [2, 17]: 100
- Lambsquarters plant response rating [2, 23]: 0
- Nutsedge, Yellow plant response rating [3, 18]: 0
- Nutsedge, Yellow plant response rating [3, 19]: 0
- Plant response rating, Nutsedge, Yellow [3, 20]: 0
- Plant response rating, Nutsedge, Yellow [3, 21]: 0
- Nutsedge, Yellow plant response rating [3, 22]: 0
- Plant response rating, Nutsedge, Yellow [3, 16]: 0
- Plant response rating, Nutsedge, Yellow [3, 17]: 45
- Nutsedge, Yellow plant response rating [3, 23]: 0
- Crabgrass, Large plant response rating [4, 18]: 100
- Crabgrass, Large plant response rating [4, 19]: 100
- Plant response rating, Crabgrass, Large [4, 20]: 100
- Plant response rating, Crabgrass, Large [4, 21]: 100
- Crabgrass, Large plant response rating [4, 22]: 95
- Plant response rating, Crabgrass, Large [4, 16]: 100
- Plant response rating, Crabgrass, Large [4, 17]: 100
- Crabgrass, Large plant response rating [4, 23]: 98
- Ragweed plant response rating [5, 18]: 20
- Ragweed plant response rating [5, 19]: 40
- Plant response rating, Ragweed [5, 20]: 65
- Plant response rating, Ragweed [5, 21]: 85
- Ragweed plant response rating [5, 22]: 0
- Plant response rating, Ragweed [5, 16]: 50
- Plant response rating, Ragweed [5, 17]: 80
- Ragweed plant response rating [5, 23]: 20
- Plant response rating, Galium ([6]; 31 g ai/ha, scale 0 to 100 (0 no effect, 100 complete control)): 50
- Plant response rating, Galium ([6]; 62 g ai/ha, 0 to 100 scale, 0 no effect, 100 complete control): 50
- Cupgrass, Woolly plant response rating [7, 18]: 85
- Cupgrass, Woolly plant response rating [7, 19]: 90
- Plant response rating, Cupgrass, Woolly [7, 20]: 95
- Plant response rating, Cupgrass, Woolly [7, 21]: 100
- Cupgrass, Woolly plant response rating [7, 22]: 45
- Plant response rating, Cupgrass, Woolly [7, 16]: 98
- Plant response rating, Cupgrass, Woolly [7, 17]: 100
- Cupgrass, Woolly plant response rating [7, 23]: 80
- Corn plant response rating (corn (Zea mays); [18]): 40
- Corn plant response rating (corn (Zea mays); [19]): 100
- Plant response rating, Corn (corn (Zea mays); [20]): 100
- Plant response rating, Corn (corn (Zea mays); [21]): 100
- Corn plant response rating (corn (Zea mays); [22]): 95
- Plant response rating, Corn (corn (Zea mays); [16]): 98
- Plant response rating, Corn (corn (Zea mays); [17]): 98
- Corn plant response rating (corn (Zea mays); [23]): 95
- Foxtail, Green plant response rating [8, 18]: 85
- Foxtail, Green plant response rating [8, 19]: 100
- Plant response rating, Foxtail, Green [8, 20]: 100
- Plant response rating, Foxtail, Green [8, 21]: 100
- Foxtail, Green plant response rating [8, 22]: 70
- Plant response rating, Foxtail, Green [8, 16]: 100
- Plant response rating, Foxtail, Green [8, 17]: 100
- Foxtail, Green plant response rating [8, 23]: 100
- Oat, Wild plant response rating (wild oat (Avena fatua); [18]): 95
- Oat, Wild plant response rating (wild oat (Avena fatua); [19]): 95
- Plant response rating, Oat, Wild (wild oat (Avena fatua); [20]): 95
- Plant response rating, Oat, Wild (wild oat (Avena fatua); [21]): 100
- Oat, Wild plant response rating (wild oat (Avena fatua); [22]): 0
- Plant response rating, Oat, Wild (wild oat (Avena fatua); [16]): 80
- Plant response rating, Oat, Wild (wild oat (Avena fatua); [17]): 80
- Oat, Wild plant response rating (wild oat (Avena fatua); [23]): 60
- Pigweed plant response rating [9, 18]: 0
- Pigweed plant response rating [9, 19]: 0
- Plant response rating, Pigweed [9, 20]: 0
- Plant response rating, Pigweed [9, 21]: 0
- Pigweed plant response rating [9, 22]: 0
- Plant response rating, Pigweed [9, 16]: 0
- Plant response rating, Pigweed [9, 17]: 0
- Velvetleaf plant response rating [10, 18]: 0
- Velvetleaf plant response rating [10, 19]: 0
- Plant response rating, Velvetleaf [10, 20]: 0
- Plant response rating, Velvetleaf [10, 21]: 55
- Velvetleaf plant response rating [10, 22]: 0
- Plant response rating, Velvetleaf [10, 16]: 45
- Plant response rating, Velvetleaf [10, 17]: 75
- Velvetleaf plant response rating [10, 23]: 0
- Cocklebur plant response rating [11, 18]: 0
- Cocklebur plant response rating [11, 19]: 0
- Plant response rating, Cocklebur [11, 20]: 0
- Plant response rating, Cocklebur [11, 21]: 20
- Cocklebur plant response rating [11, 22]: 0
- Plant response rating, Cocklebur [11, 16]: 0
- Plant response rating, Cocklebur [11, 17]: 35
- Cocklebur plant response rating [11, 23]: 0
